From ChEMBL document CHEMBL4265932, “Advances in diarylpyrimidines and related analogues as HIV-1 nonnucleoside reverse transcriptase inhibitors” (Eur J Med Chem, 2018)

How the values were obtained:
[1] = molecular target: Human immunodeficiency virus type 1 reverse transcriptase (Human immunodeficiency virus 1, UniProt Q72547, K103N/L100I); assay: Inhibition of recombinant HIV1 reverse transcriptase L100I/K103N double mutant
[2] = molecular target: Human immunodeficiency virus type 1 reverse transcriptase (Human immunodeficiency virus 1, UniProt Q72547, Y181C); assay: Inhibition of recombinant HIV1 reverse transcriptase Y181C mutant
[3] = molecular target: Human immunodeficiency virus type 1 reverse transcriptase (Human immunodeficiency virus 1, UniProt Q72547, L100I); assay: Inhibition of recombinant HIV1 reverse transcriptase L100I mutant
[4] = molecular target: Human immunodeficiency virus type 1 reverse transcriptase (Human immunodeficiency virus 1, UniProt Q72547, Y188L); assay: Inhibition of recombinant HIV1 reverse transcriptase Y188L mutant
[5] = molecular target: T1, Human immunodeficiency virus type 1 reverse transcriptase (Human immunodeficiency virus 1, UniProt Q72547); assay: Inhibition of wild-type HIV1 3B reverse transcriptase
[6] = molecular target: Human immunodeficiency virus type 1 reverse transcriptase (Human immunodeficiency virus 1, UniProt Q72547, K103N); assay: Inhibition of recombinant HIV1 reverse transcriptase K103N mutant
[7] = molecular target: T2, Human immunodeficiency virus type 1 reverse transcriptase (Human immunodeficiency virus 1, UniProt Q72547, K103N/Y181C); assay: Inhibition of HIV1 RES056 reverse transcriptase K103N/Y181C double mutant
[8] = molecular target: T1, Human immunodeficiency virus type 1 reverse transcriptase; assay: Inhibition of HIV1 reverse transcriptase
[9] = Selectivity index, ratio of CC50 for human MT4 cells to EC50 for wild-type HIV1 3B reverse transcriptase infected in human MT4 cells; assay type: toxicity, cell-based; conditions: read-out: Ratio CC50/EC50
[10] = Selectivity index, ratio of CC50 for human TZM-bl cells to EC50 for wild-type HIV1 infected in human TZM-bl cells; assay type: toxicity, cell-based; conditions: read-out: Ratio CC50/EC50
[11] = test system: Human immunodeficiency virus 1; assay: Antiviral activity against wild-type HIV1 infected in human TZM-bl cells pretreated with cells for 30 mins followed by viral infection and measured after 48 hrs by luciferase reporter gene assay; assay type: functional, organism-based; conditions: Human immunodeficiency virus 1, TZM-bl
[12] = molecular target: T2, Human immunodeficiency virus type 1 reverse transcriptase; assay: Inhibition of recombinant HIV1 reverse transcriptase K103N/Y181C double mutant

Compound `Cc1cc(C)c(Nc2ccnc(Nc3ccc(Cl)cc3)n2)c(C)c1` has an IC50 [1] of over 10000 nM, an IC50 [2] of 79.4 nM and an IC50 [3] of 200 nM. It also gave an IC50 [4] of 2510 nM, an IC50 [5] of 3.16 nM and an IC50 [6] of 25.1 nM.

`N#Cc1ccc(Nc2nccc(/C(=N\N)c3ccc4ccccc4c3)n2)cc1` gave an EC50 [7] of 8400 nM and an EC50 [5] of 8.4 nM.

`N#Cc1ccc(Nc2nccc(/C(=N\N)c3ccccc3Br)n2)cc1` gave an EC50 [7] of over 9200 nM and an EC50 [5] of 1.7 nM.

`CC(=O)c1ccc(C)cc1NC(C(N)=O)c1c(Cl)cccc1Cl` (stereo not drawn) [LOVIRIDE] showed an EC50 [8] of 13 nM.

Work on `N#Cc1ccc(Nc2nccc(Oc3ccc4cc(C#N)ccc4c3Br)n2)cc1` yielded a selectivity ratio [9] of 181000.

`Cc1cc(/C=C/C#N)cc(C)c1Nc1ccc(F)c(Nc2ccc(C#N)cc2)n1` showed a selectivity ratio [10] of 62500 and an EC50 [11] of 1.6 nM.

With `Cc1cc(C)c(Nc2ccnc(Nc3ccc(C#N)cc3)n2)c(C)c1` [DAPIVIRINE] the IC50 [1] was over 10000 nM, the IC50 [2] was 7.94 nM and the IC50 [3] was 15.8 nM. For the same compound, the IC50 [4] was 39.8 nM, the IC50 [12] was 39.8 nM and the IC50 [5] was 1 nM. For the same compound, the IC50 [6] was 3.98 nM.

For `Cc1cc(C)c(Nc2ccnc(Nc3ccc(C(N)=O)cc3)n2)c(C)c1`, the IC50 [2] was over 10000 nM, the IC50 [3] was over 10000 nM and the IC50 [4] was over 10000 nM. It also gave an IC50 [5] of 63.1 nM and an IC50 [6] of over 10000 nM.

Compound `Cc1cc(/C=C/C#N)cc(F)c1Nc1ccc(F)c(Nc2ccc(C#N)cc2)n1` has a selectivity ratio [10] of over 100000 and an EC50 [11] of 1 nM.

Compound `Cc1cc(/C=C/C#N)cc(C)c1Nc1ncc(F)c(Nc2ccc(C#N)cc2)n1` has a selectivity ratio [10] of over 42000 and an EC50 [11] of 0.9 nM.

In the case of `Cc1cc(C#N)cc(C)c1Nc1ncc(F)c(Nc2ccc(C#N)cc2)n1`, the selectivity ratio [10] is reported as 36000 and the EC50 [11] is reported as 2.8 nM.

`N#Cc1ccc(Nc2nccc(Oc3ccc4ccccc4c3Br)n2)cc1` gave a selectivity ratio [9] of 65600.
